According to patent publication US20170000133A1, “BENZOXABOROLE FUNGICIDES” (SYNGENTA PARTICIPATIONS AG, priority 2013, published 2017):

Key:
[1] = test system: Mycosphaerella graminicola (Septoria tritici); assay: Mycosphaerella graminicola (Septoria tritici) / liquid culture (Septoria blotch); format: cell-based; settings: Zymoseptoria tritici, PDB potato dextrose broth, 24° C., 4-5 days after application, read-out: disease control (inhibition of growth determined photometrically)
In short: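 Conidia from cryostorage were suspended in potato dextrose broth and added to test compound in DMSO at 200 ppm in microtiter wells. Plates were incubated at 24° C and growth inhibition measured photometrically 4-5 days after application.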

[2] = test system: Thanatephorus cucumeris (Rhizoctonia solani); assay: Thanatephorus cucumeris (Rhizoctonia solani) / liquid culture (foot rot, damping-off); format: cell-based; settings: PDB potato dextrose broth, 24° C., 3-4 days after application, read-out: disease control (inhibition of growth determined photometrically)
In short: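 Mycelial fragments from fresh liquid culture were suspended in potato dextrose broth and added to compound in DMSO at 200 ppm. After 3-4 days at 24 °C, growth inhibition was measured photometrically.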

[3] = test system: Monographella nivalis (Microdochium nivale); assay: Monographella nivalis (Microdochium nivale) / liquid culture (foot rot cereals); format: cell-based; settings: PDB potato dextrose broth, 24° C., 4-5 days after application, read-out: disease control (inhibition of growth determined photometrically)
Pythium ultimum = Pythium ultimum / liquid culture (seedling damping off); format: cell-based; settings: Globisporangium ultimum; 200 ppm; potato dextrose broth, 24° C., 2-3 days after application; read-out: disease control (inhibition of growth determined photometrically)
[4] = test system: Puccinia recondita f. sp. tritici; assay: Puccinia recondita f. sp. tritici / wheat / leaf disc preventative (brown rust); format: in vivo; settings: foliar, wheat leaf segments cv Kanzler, inoculated 1 day after application, assessed 7-9 days after application, read-out: disease control
Excerpt: 3. Puccinia recondita f. sp. tritici/Wheat/Leaf Disc Preventative (Brown Rust): Wheat leaf segments cultivated variety (cv) Kanzler were placed on agar in 24-well plates and sprayed with formulated test compound diluted in water at an application rate of 200 ppm. The leaf disks were inoculated with a spore suspension of the fungus 1 day after application.

[5] = test system: Mycosphaerella arachidis (Cercospora arachidicola); assay: Mycosphaerella arachidis (Cercospora arachidicola) / liquid culture (early leaf spot); format: cell-based; settings: PDB potato dextrose broth, 24° C., 4-5 days after application, read-out: disease control (inhibition of growth determined photometrically)
In short: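 Conidia from cryogenic storage mixed into potato dextrose broth and added to compound at 200 ppm in DMSO. Incubation at 24° C.; growth inhibition read photometrically 4-5 days after application.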

Gaeumannomyces graminis = Gaeumannomyces graminis / liquid culture (take-all of cereals); format: cell-based; settings: PDB potato dextrose broth, 24° C., 4-5 days after application, read-out: disease control (inhibition of growth determined photometrically)
In short: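 Cryo-stored mycelial fragments in potato dextrose broth exposed to compound in DMSO at 200 ppm. Incubated at 24 °C; growth inhibition read photometrically 4–5 days after application.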

Fusarium culmorum = assay: microbe, parasite or virus in culture; format: cell-based; settings: read-out: disease control (inhibition of growth determined visually)
[6] = test system: Glomerella lagenarium (Colletotrichum lagenarium); assay: Glomerella lagenarium (Colletotrichum lagenarium) / liquid culture (anthracnose); format: cell-based; settings: Colletotrichum orbiculare, PDB potato dextrose broth, 24° C., 3-4 days after application, read-out: disease control (inhibition of growth measured photometrically)
In short: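 Conidia of G. lagenarium from cryogenic storage were suspended in potato dextrose broth and added to test compound in DMSO at 200 ppm. Plates were incubated at 24° C, and growth inhibition was read photometrically 3-4 days after application.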

Plasmopara viticola = assay: whole plant or invertebrate; format: in vivo; settings: foliar, read-out: disease control
Phytophthora infestans = assay: whole plant or invertebrate; format: in vivo; settings: in Solanum lycopersicum, foliar, read-out: disease control
[7] = test system: Botryotinia fuckeliana (Botrytis cinerea); assay: Botryotinia fuckeliana (Botrytis cinerea) / liquid culture (gray mould); format: cell-based; settings: Vogels broth, 24° C., 3-4 days after application, read-out: disease control (inhibition of growth determined photometrically)
Procedure: 10. Botryotinia fuckeliana (Botrytis cinerea)/Liquid Culture (Gray Mould): Conidia of the fungus from cryogenic storage were directly mixed into nutrient broth (Vogels broth). After placing a DMSO solution of test compound into a 96-well microtiter plate at an application rate of 200 ppm, the nutrient broth containing the fungal spores was added. The test plates were incubated at 24° C. and the inhibition of growth was determined photometrically 3-4 days after application.

SMILES	inhibition at 200 ppm [1] [%]	inhibition at 200 ppm [2] [%]	inhibition at 200 ppm [3] [%]	inhibition at 200 ppm (Pythium ultimum) [%]	pest or weed control at 200 ppm [4] [%]	melting point [°C]	inhibition at 200 ppm [5] [%]	inhibition at 200 ppm (Gaeumannomyces graminis) [%]	inhibition at 200 ppm (Fusarium culmorum) [%]	inhibition at 200 ppm [6] [%]	pest or weed control at 200 ppm (Plasmopara viticola) [%]	pest or weed control at 200 ppm (Phytophthora infestans) [%]	inhibition at 200 ppm [7] [%]
O=C(OCc1ccsc1)c1ccc2c(c1)B(O)OC2 [Compound 50]	≥ 80	≥ 80	≥ 80	≥ 80	≥ 80	130 to 132	≥ 80	≥ 80	≥ 80	≥ 80	≥ 80		
O=C(NCc1cccc(Cl)c1)c1cc2c(cc1Cl)COB2O [Compound 85]				≥ 80		263 to 265		≥ 80			≥ 80	≥ 80	
O=C(NCc1ccccc1F)c1cc2c(cc1F)COB2O [Compound 107]				≥ 80		175 to 177				≥ 80	≥ 80	≥ 80	
Cc1cccc(Cl)c1NC(=O)c1cc2c(cc1F)COB2O [Compound 150]			≥ 80	≥ 80		212 to 214			≥ 80	≥ 80		≥ 80	
COC(=O)c1sccc1NC(=O)c1cc2c(cc1Cl)COB2O [Compound 169]	≥ 80		≥ 80		≥ 80	267 to 269				≥ 80	≥ 80		
COC(=O)c1sccc1NC(=O)c1cc2c(cc1F)COB2O [Compound 186]			≥ 80	≥ 80		302 to 304					≥ 80	≥ 80	
Cc1ccc(-c2csc(NC(=O)c3cc4c(cc3F)COB4O)n2)cc1 [Compound 188]			≥ 80		≥ 80						≥ 80		
C[Si](C)(C)CCCOC(=O)c1cc2c(cc1Cl)COB2O [Compound 194]	≥ 80		≥ 80				≥ 80	≥ 80		≥ 80			≥ 80
C#CC(CC)OC(=O)c1cc2c(cc1Cl)COB2O (stereo not drawn) [Compound 201]	≥ 80		≥ 80	≥ 80				≥ 80		≥ 80	≥ 80		≥ 80
O=C(OCc1cccc2ccccc12)c1cc2c(cc1Cl)COB2O [Compound 207]			≥ 80	≥ 80	≥ 80			≥ 80				≥ 80	
C[Si](C)(C)/C=C/COC(=O)c1cc2c(cc1Cl)COB2O [Compound 216]	≥ 80		≥ 80				≥ 80	≥ 80					≥ 80
O=C(OCC1CCC1)c1cc2c(cc1Cl)COB2O [Compound 225]	≥ 80	≥ 80	≥ 80	≥ 80	≥ 80	115 to 117	≥ 80	≥ 80		≥ 80			≥ 80
O=C(OCCc1ccc(Cl)cc1Cl)c1ccc2c(c1)B(O)OC2 [Compound 312]			≥ 80		≥ 80			≥ 80					
CCCCCCCOC(=O)c1ccc2c(c1)B(O)OC2 [Compound 317]	≥ 80	≥ 80	≥ 80	≥ 80	≥ 80		≥ 80	≥ 80		≥ 80	≥ 80		≥ 80
CC#CCOC(=O)c1ccc2c(c1)B(O)OC2 [Compound 323]	≥ 80	≥ 80	≥ 80	≥ 80		154 to 155	≥ 80	≥ 80	≥ 80		≥ 80	≥ 80	≥ 80
CCCCCCCCCCOC(=O)c1ccc2c(c1)B(O)OC2 [Compound 331]	≥ 80	≥ 80		≥ 80	≥ 80		≥ 80						
COC(=O)C(OC(=O)c1ccc2c(c1)B(O)OC2)c1ccccc1 (stereo not drawn) [Compound 349]			≥ 80	≥ 80	≥ 80			≥ 80		≥ 80	≥ 80		
C[Si](C)(C)COC(=O)c1ccc2c(c1)B(O)OC2 [Compound 367]	≥ 80	≥ 80	≥ 80	≥ 80	≥ 80			≥ 80		≥ 80	≥ 80		
O=C(OCCc1ccc(Cl)cc1Cl)c1cc2c(cc1F)COB2O [Compound 370]	≥ 80	≥ 80	≥ 80	≥ 80	≥ 80			≥ 80					
O=C(OCCc1c(Cl)cccc1Cl)c1ccc2c(c1)B(O)OC2 [Compound 373]	≥ 80		≥ 80					≥ 80	≥ 80		≥ 80		≥ 80
O=C(OCC1CCSCC1)c1cc2c(cc1F)COB2O [Compound 380]		≥ 80	≥ 80	≥ 80	≥ 80		≥ 80			≥ 80	≥ 80		
CCCCCCCCCCOC(=O)c1cc2c(cc1F)COB2O [Compound 391]		≥ 80		≥ 80	≥ 80		≥ 80	≥ 80					
O=C(OCC#Cc1ccccc1)c1cc2c(cc1F)COB2O [Compound 422]	≥ 80	≥ 80	≥ 80	≥ 80			≥ 80	≥ 80	≥ 80				≥ 80
O=C(OCc1cccc(F)c1)c1cc2c(cc1F)COB2O [Compound 434]	≥ 80	≥ 80	≥ 80	≥ 80			≥ 80	≥ 80		≥ 80	≥ 80		≥ 80
O=C(OCc1ccsc1)c1cc2c(cc1F)COB2O [Compound 441]	≥ 80	≥ 80	≥ 80	≥ 80	≥ 80	128 to 130	≥ 80		≥ 80	≥ 80	≥ 80		
